{"source": "ChEMBL document CHEMBL1131650", "about": "“Reactions of 1-methylbenzimidazole derivatives with m-chloroperoxybenzoic acid” (Bioorg Med Chem Lett, 1998)", "experiment": "Compound was evaluated for dissociation constant (pKa)", "format": "physicochemical", "data": [{"smiles": "Cc1cc2ncn(C)c2cc1C", "values": [{"measurement": "pKa", "value": 6}]}, {"smiles": "Cn1cnc2cc([N+](=O)[O-])c([N+](=O)[O-])cc21", "values": [{"measurement": "pKa", "value": 1.6}]}, {"smiles": "Cn1cnc2ccccc21", "values": [{"measurement": "pKa", "value": 5.6}]}, {"smiles": "Cn1cnc2ccc([N+](=O)[O-])cc21", "values": [{"measurement": "pKa", "value": 3.35}]}, {"smiles": "Cc1ccc2ncn(C)c2c1", "values": [{"measurement": "pKa", "value": 5.7}]}, {"smiles": "Cc1ccc2c(c1)ncn2C", "values": [{"measurement": "pKa", "value": 5.65}]}, {"smiles": "Cn1cnc2cc([N+](=O)[O-])ccc21", "values": [{"measurement": "pKa", "value": 3.28}]}]}
